According to paper PMC8401933 (Molecules, 2021):

Key:
Assay in all cases: KINOMEscan binding
TGFBR2 = target: T1, TGFBR2 (Homo sapiens, UniProt P37173); conditions: read-out: Percent Control
T1 construct: purchased Eurofins DiscoverX KINOMEscan

TAOK2 = target: T2, TAOK2 (Homo sapiens, UniProt Q9UL54); conditions: read-out: Percent Control
T2 construct: purchased Eurofins DiscoverX KINOMEscan

LRRK2 = target: T3, LRRK2 (Homo sapiens, UniProt Q5S007); conditions: read-out: Percent Control
T3 construct: purchased Eurofins DiscoverX KINOMEscan

MYO3A = target: T4, MYO3A (Homo sapiens, UniProt Q8NEV4); conditions: read-out: Percent Control
T4 construct: purchased Eurofins DiscoverX KINOMEscan

LKB1 = target: T5, LKB1 (Homo sapiens, UniProt Q15831); conditions: read-out: Percent Control
T5 construct: purchased Eurofins DiscoverX KINOMEscan

EPHA6 = target: T6, EPHA6 (Homo sapiens, UniProt Q9UF33); conditions: read-out: Percent Control
T6 construct: purchased Eurofins DiscoverX KINOMEscan

AMPK-alpha1 = target: T7, AMPK-alpha1 (Homo sapiens, UniProt Q13131); conditions: read-out: Percent Control
T7 construct: purchased Eurofins DiscoverX KINOMEscan

TXK = target: T8, TXK (Homo sapiens, UniProt P42681); conditions: read-out: Percent Control
T8 construct: purchased Eurofins DiscoverX KINOMEscan

EPHA2 = target: T9, EPHA2 (Homo sapiens, UniProt P29317); conditions: read-out: Percent Control
T9 construct: purchased Eurofins DiscoverX KINOMEscan

[1] = target: T10, TYK2(JH1domain-catalytic) (Homo sapiens, UniProt P29597); conditions: read-out: Percent Control
T10 construct: TYK2(JH1domain-catalytic); purchased Eurofins DiscoverX KINOMEscan

BUB1 = target: T11, BUB1 (Homo sapiens, UniProt O43683); conditions: read-out: Percent Control
T11 construct: purchased Eurofins DiscoverX KINOMEscan

MAP3K15 = target: T12, MAP3K15 (Homo sapiens, UniProt Q6ZN16); conditions: read-out: Percent Control
T12 construct: purchased Eurofins DiscoverX KINOMEscan

IKK-alpha = target: T13, IKK-alpha (Homo sapiens, UniProt O15111); conditions: read-out: Percent Control
T13 construct: purchased Eurofins DiscoverX KINOMEscan

LZK = target: T14, LZK (Homo sapiens, UniProt O43283); conditions: read-out: Percent Control
T14 construct: purchased Eurofins DiscoverX KINOMEscan

TRKB = target: T15, TRKB (Homo sapiens, UniProt Q16620); conditions: read-out: Percent Control
T15 construct: purchased Eurofins DiscoverX KINOMEscan

[2] = target: T16, ABL1(M351T)-phosphorylated (Homo sapiens, UniProt P00519, M351T); conditions: read-out: Percent Control
T16 construct: purchased Eurofins DiscoverX KINOMEscan

BRAF(V600E) = target: T17, BRAF(V600E) (Homo sapiens, UniProt P15056, V600E); conditions: read-out: Percent Control
T17 construct: purchased Eurofins DiscoverX KINOMEscan

PIP5K1C = target: T18, PIP5K1C (Homo sapiens, UniProt O60331); conditions: read-out: Percent Control
T18 construct: purchased Eurofins DiscoverX KINOMEscan

SRPK1 = target: T19, SRPK1 (Homo sapiens, UniProt Q96SB4); conditions: read-out: Percent Control
T19 construct: purchased Eurofins DiscoverX KINOMEscan

TIE1 = target: T20, TIE1 (Homo sapiens, UniProt P35590); conditions: read-out: Percent Control
T20 construct: purchased Eurofins DiscoverX KINOMEscan

PIK3CA = target: T21, PIK3CA (Homo sapiens, UniProt P42336); conditions: read-out: Percent Control
T21 construct: purchased Eurofins DiscoverX KINOMEscan

CDKL3 = target: T22, CDKL3 (Homo sapiens, UniProt Q8IVW4); conditions: read-out: Percent Control
T22 construct: purchased Eurofins DiscoverX KINOMEscan

PLK4 = target: T23, PLK4 (Homo sapiens, UniProt O00444); conditions: read-out: Percent Control
T23 construct: purchased Eurofins DiscoverX KINOMEscan

PIM1 = target: T24, PIM1 (Homo sapiens, UniProt P11309); conditions: read-out: Percent Control
T24 construct: purchased Eurofins DiscoverX KINOMEscan

DDR2 = target: T25, DDR2 (Homo sapiens, UniProt Q16832); conditions: read-out: Percent Control
T25 construct: purchased Eurofins DiscoverX KINOMEscan

SRC = target: T26, SRC (Homo sapiens, UniProt P12931); conditions: read-out: Percent Control
T26 construct: purchased Eurofins DiscoverX KINOMEscan

LTK = target: T27, LTK (Homo sapiens, UniProt P29376); conditions: read-out: Percent Control
T27 construct: purchased Eurofins DiscoverX KINOMEscan

LIMK1 = target: T28, LIMK1 (Homo sapiens, UniProt P53667); conditions: read-out: Percent Control
T28 construct: purchased Eurofins DiscoverX KINOMEscan

EPHA8 = target: T29, EPHA8 (Homo sapiens, UniProt P29322); conditions: read-out: Percent Control
T29 construct: purchased Eurofins DiscoverX KINOMEscan

PIK3CA(H1047L) = target: T30, PIK3CA(H1047L) (Homo sapiens, UniProt P42336, H1047L); conditions: read-out: Percent Control
T30 construct: purchased Eurofins DiscoverX KINOMEscan

SGK2 = target: T31, SGK2 (Homo sapiens, UniProt Q9HBY8); conditions: read-out: Percent Control
T31 construct: purchased Eurofins DiscoverX KINOMEscan

RIOK1 = target: T32, RIOK1 (Homo sapiens, UniProt Q9BRS2); conditions: read-out: Percent Control
T32 construct: purchased Eurofins DiscoverX KINOMEscan

CDK7 = target: T33, CDK7 (Homo sapiens, UniProt P50613); conditions: read-out: Percent Control
T33 construct: purchased Eurofins DiscoverX KINOMEscan

CSNK1G1 = target: T34, CSNK1G1 (Homo sapiens, UniProt Q9HCP0); conditions: read-out: Percent Control
T34 construct: purchased Eurofins DiscoverX KINOMEscan

ITK = target: T35, ITK (Homo sapiens, UniProt Q08881); conditions: read-out: Percent Control
T35 construct: purchased Eurofins DiscoverX KINOMEscan

[3] = target: T36, RSK1(Kin.Dom.2-C-terminal) (Homo sapiens, UniProt Q15418); conditions: read-out: Percent Control
T36 construct: RSK1(Kin.Dom.2-C-terminal); purchased Eurofins DiscoverX KINOMEscan

DDR1 = target: T37, DDR1 (Homo sapiens, UniProt Q08345); conditions: read-out: Percent Control
T37 construct: purchased Eurofins DiscoverX KINOMEscan

AURKC = target: T38, AURKC (Homo sapiens, UniProt Q9UQB9); conditions: read-out: Percent Control
T38 construct: purchased Eurofins DiscoverX KINOMEscan

MARK4 = target: T39, MARK4 (Homo sapiens, UniProt Q96L34); conditions: read-out: Percent Control
T39 construct: purchased Eurofins DiscoverX KINOMEscan

ERN1 = target: T40, ERN1 (Homo sapiens, UniProt O75460); conditions: read-out: Percent Control
T40 construct: purchased Eurofins DiscoverX KINOMEscan

DMPK2 = target: T41, DMPK2 (Homo sapiens, UniProt Q6DT37); conditions: read-out: Percent Control
T41 construct: purchased Eurofins DiscoverX KINOMEscan

PCTK2 = target: T42, PCTK2 (Homo sapiens, UniProt Q00537); conditions: read-out: Percent Control
T42 construct: purchased Eurofins DiscoverX KINOMEscan

MTOR = target: T43, MTOR (Homo sapiens, UniProt P42345); conditions: read-out: Percent Control
T43 construct: purchased Eurofins DiscoverX KINOMEscan

FLT3(ITD) = test system: FLT3(ITD); design: species or system human; conditions: 10 μM

T33 sequence (P50613 whole entry): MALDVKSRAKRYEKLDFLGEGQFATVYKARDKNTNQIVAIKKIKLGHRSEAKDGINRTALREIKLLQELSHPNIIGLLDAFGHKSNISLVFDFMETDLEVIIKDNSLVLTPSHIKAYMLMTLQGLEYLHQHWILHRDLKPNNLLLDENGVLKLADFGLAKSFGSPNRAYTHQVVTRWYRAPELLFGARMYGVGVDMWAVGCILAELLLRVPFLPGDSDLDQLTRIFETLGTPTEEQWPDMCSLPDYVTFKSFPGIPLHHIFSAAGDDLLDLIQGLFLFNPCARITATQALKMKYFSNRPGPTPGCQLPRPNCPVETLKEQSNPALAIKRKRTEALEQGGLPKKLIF
T18 sequence (O60331 whole entry): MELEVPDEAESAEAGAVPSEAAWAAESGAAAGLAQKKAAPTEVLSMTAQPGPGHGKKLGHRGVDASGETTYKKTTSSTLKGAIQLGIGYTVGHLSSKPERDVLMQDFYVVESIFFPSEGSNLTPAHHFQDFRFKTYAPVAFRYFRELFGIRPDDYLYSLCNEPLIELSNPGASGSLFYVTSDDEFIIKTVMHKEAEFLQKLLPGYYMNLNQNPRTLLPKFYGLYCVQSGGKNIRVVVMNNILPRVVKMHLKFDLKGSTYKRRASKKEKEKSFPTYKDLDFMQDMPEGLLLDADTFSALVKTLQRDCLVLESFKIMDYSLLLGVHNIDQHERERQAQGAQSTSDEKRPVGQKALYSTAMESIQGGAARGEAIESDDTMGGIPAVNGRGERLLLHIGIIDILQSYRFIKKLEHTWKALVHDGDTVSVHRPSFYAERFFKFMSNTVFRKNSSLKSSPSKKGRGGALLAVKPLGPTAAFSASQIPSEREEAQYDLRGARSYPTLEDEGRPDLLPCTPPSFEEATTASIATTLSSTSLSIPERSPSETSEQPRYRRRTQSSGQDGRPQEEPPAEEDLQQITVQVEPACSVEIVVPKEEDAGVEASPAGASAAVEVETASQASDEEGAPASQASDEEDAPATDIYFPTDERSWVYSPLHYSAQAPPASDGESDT
T1 sequence (P37173 23-567): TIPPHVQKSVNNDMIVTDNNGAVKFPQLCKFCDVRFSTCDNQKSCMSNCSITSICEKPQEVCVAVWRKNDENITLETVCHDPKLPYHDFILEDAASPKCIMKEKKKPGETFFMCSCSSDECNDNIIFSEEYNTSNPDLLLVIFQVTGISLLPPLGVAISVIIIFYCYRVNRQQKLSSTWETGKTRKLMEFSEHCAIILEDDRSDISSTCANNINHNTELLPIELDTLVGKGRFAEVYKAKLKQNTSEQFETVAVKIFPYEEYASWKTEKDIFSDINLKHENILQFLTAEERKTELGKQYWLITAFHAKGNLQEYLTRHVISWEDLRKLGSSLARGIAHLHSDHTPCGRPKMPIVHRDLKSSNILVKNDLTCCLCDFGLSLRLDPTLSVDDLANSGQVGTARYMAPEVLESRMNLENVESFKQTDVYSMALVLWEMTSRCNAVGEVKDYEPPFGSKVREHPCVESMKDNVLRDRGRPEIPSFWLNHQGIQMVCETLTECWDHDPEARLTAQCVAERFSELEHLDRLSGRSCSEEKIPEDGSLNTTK
T12 sequence (Q6ZN16 whole entry): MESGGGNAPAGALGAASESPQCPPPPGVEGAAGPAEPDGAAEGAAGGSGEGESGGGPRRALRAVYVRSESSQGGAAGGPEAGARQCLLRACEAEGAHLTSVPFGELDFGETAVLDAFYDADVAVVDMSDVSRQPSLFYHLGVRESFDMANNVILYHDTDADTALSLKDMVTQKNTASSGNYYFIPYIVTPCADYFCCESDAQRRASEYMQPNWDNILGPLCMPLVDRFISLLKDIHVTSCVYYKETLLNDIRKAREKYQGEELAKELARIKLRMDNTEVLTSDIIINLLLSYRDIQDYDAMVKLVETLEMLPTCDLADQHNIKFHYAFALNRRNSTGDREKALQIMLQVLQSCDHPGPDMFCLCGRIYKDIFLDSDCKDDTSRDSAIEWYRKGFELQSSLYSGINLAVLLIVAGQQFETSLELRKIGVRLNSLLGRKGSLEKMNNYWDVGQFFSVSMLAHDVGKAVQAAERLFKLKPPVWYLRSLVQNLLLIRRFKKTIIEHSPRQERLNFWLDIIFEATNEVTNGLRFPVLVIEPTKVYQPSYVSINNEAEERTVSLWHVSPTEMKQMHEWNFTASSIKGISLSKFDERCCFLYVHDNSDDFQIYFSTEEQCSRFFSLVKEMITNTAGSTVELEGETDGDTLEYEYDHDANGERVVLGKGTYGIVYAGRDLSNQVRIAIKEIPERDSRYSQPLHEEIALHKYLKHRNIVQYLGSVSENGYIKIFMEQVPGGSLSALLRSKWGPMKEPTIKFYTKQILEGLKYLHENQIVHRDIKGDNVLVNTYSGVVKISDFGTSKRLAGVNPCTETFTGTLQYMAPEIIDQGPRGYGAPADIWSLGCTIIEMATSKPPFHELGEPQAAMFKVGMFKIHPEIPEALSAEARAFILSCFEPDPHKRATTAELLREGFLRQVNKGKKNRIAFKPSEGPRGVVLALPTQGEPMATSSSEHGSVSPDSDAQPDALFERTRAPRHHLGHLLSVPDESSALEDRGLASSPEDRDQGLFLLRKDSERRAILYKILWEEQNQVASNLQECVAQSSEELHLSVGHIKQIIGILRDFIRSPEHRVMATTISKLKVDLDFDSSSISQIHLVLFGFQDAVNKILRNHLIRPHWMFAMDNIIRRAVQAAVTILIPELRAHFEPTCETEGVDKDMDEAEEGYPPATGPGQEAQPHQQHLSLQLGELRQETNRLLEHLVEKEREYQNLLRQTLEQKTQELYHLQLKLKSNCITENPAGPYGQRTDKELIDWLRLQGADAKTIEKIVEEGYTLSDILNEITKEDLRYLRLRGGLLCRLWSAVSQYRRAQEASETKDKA
T9 sequence (P29317 24-976): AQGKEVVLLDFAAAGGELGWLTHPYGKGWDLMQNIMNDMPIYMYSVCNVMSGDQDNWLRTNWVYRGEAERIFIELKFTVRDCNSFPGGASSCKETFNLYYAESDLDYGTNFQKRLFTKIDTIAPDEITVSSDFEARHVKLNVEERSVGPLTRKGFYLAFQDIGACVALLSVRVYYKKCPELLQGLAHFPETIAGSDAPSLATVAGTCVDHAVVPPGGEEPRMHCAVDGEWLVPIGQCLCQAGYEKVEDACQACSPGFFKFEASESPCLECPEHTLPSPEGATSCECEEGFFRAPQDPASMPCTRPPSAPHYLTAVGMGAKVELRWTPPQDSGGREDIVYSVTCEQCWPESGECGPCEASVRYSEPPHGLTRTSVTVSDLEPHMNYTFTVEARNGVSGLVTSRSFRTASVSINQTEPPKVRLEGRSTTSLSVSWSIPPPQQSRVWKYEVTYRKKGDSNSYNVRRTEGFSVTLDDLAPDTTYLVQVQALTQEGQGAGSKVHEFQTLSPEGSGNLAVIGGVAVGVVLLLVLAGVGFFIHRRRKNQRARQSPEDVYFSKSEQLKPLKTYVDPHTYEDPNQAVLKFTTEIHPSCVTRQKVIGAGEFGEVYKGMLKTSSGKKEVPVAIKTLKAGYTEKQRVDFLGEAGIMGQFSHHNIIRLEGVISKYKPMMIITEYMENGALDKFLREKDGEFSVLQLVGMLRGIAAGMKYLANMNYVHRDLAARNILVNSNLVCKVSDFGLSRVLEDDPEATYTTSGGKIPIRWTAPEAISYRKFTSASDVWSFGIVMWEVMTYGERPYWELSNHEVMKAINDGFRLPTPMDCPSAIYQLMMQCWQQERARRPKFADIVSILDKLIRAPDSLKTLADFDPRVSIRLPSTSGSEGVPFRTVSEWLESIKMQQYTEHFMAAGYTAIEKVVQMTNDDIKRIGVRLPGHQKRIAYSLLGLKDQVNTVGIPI
T21 sequence (P42336 whole entry): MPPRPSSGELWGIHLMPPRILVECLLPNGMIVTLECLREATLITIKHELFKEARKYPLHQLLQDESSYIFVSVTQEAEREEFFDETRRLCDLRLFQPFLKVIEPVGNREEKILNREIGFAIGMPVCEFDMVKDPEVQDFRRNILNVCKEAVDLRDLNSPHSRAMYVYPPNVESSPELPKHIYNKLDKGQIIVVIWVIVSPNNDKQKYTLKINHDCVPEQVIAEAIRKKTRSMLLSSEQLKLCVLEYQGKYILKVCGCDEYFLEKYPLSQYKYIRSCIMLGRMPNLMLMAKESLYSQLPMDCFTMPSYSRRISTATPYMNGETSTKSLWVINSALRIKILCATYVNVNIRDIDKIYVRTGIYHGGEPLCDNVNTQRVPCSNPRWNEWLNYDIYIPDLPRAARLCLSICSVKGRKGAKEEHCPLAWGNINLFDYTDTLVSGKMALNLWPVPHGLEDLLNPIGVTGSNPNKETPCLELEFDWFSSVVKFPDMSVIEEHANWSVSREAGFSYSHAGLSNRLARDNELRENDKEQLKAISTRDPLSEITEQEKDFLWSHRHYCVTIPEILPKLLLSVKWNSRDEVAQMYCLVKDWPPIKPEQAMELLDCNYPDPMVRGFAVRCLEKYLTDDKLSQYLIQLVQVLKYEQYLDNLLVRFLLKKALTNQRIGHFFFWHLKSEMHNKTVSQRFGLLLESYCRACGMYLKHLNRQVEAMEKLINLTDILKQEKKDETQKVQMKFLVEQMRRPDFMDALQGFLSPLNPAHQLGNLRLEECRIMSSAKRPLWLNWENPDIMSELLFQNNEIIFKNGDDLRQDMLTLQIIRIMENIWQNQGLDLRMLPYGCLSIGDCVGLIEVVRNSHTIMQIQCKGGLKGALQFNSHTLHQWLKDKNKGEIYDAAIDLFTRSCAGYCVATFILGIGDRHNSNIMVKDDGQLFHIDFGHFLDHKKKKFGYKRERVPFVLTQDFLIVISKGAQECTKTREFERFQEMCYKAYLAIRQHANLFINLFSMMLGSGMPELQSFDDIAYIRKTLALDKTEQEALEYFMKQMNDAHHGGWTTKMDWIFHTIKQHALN
T30 sequence (P42336 whole entry H1047L): as the sequence (P42336 whole entry) above, with H1047L counted along it

## CC(C)NC(=O)COc1cccc(-c2nc(Nc3ccc4[nH]ncc4c3)c3ccccc3n2)c1 [KD025, 2-(3-(4-((1H-indazol-5-yl)amino)quinazolin-2-yl)phenoxy)-N-isopropylacetamide]
TGFBR2
  remaining binding at 10 µM: 100%
TAOK2
  remaining binding at 10 µM: 83%
LRRK2
  remaining binding at 10 µM: 100%
MYO3A
  remaining binding at 10 µM: 94%
LKB1
  remaining binding at 10 µM: 63%
EPHA6
  remaining binding at 10 µM: 90%
AMPK-alpha1
  remaining binding at 10 µM: 76%
TXK
  remaining binding at 10 µM: 76%
EPHA2
  remaining binding at 10 µM: 59%
[1]
  remaining binding at 10 µM: 95%
BUB1
  remaining binding at 10 µM: 69%
MAP3K15
  remaining binding at 10 µM: 82%
IKK-alpha
  remaining binding at 10 µM: 100%
LZK
  remaining binding at 10 µM: 100%
TRKB
  remaining binding at 10 µM: 98%
[2]
  remaining binding at 10 µM: 90%
BRAF(V600E)
  remaining binding at 10 µM: 91%
PIP5K1C
  remaining binding at 10 µM: 47%
SRPK1
  remaining binding at 10 µM: 7%
TIE1
  remaining binding at 10 µM: 63%
PIK3CA
  remaining binding at 10 µM: 77%
CDKL3
  remaining binding at 10 µM: 91%
PLK4
  remaining binding at 10 µM: 93%
PIM1
  remaining binding at 10 µM: 100%
DDR2
  remaining binding at 10 µM: 45%
SRC
  remaining binding at 10 µM: 87%
LTK
  remaining binding at 10 µM: 49%
LIMK1
  remaining binding at 10 µM: 92%
EPHA8
  remaining binding at 10 µM: 88%
PIK3CA(H1047L)
  remaining binding at 10 µM: 82%
SGK2
  remaining binding at 10 µM: 100%
RIOK1
  remaining binding at 10 µM: 6.2%
CDK7
  remaining binding at 10 µM: 76%
CSNK1G1
  remaining binding at 10 µM: 70%
ITK
  remaining binding at 10 µM: 92%
[3]
  remaining binding at 10 µM: 100%
DDR1
  remaining binding at 10 µM: 6.4%
AURKC
  remaining binding at 10 µM: 18%
MARK4
  remaining binding at 10 µM: 66%
ERN1
  remaining binding at 10 µM: 98%
DMPK2
  remaining binding at 10 µM: 3.9%
PCTK2
  remaining binding at 10 µM: 94%
MTOR
  remaining binding at 10 µM: 92%
FLT3(ITD)
  Percent Control: 31%
